# What was measured:
# [1] = tested on: human precision cut liver slices (PCLS); test: PCLS RNA-Seq, Nonstimulation Protocol: Non-stimulated+CRV vs Non-stimulated+Vehicle; format: cell-based; conditions: for log2FoldChange: Non-stimulated+CRV vs Non-stimulated+Vehicle; for fold change in RNA: absence of TGFβ+PDGF-BB, universal in all donors
# Description: PCLS were obtained from 5 human donors who underwent resection of liver cancer. Replicate slices were collected from healthy margins of the resections and cultured for 4 or 6 days depending on the experimental protocol. In the Nonstimulation Protocol slices were cultured for 6 days and treated for the entire period with DMSO vehicle or 5 μM CRV431. In the Stimulation Protocol slices were rested for 1 day and then administered the cytokines, TGFβ and PDGF-BB, for 3 days to stimulate inflammation and fibrosis. DMSO vehicle, CRV431 (1 and 5 μM), Alk5i (10 μM), obeticholic acid (5 μM), elafibranor (5 μM), resmetirom ([…]), and Aramchol (5 μM) were administered individually as drug treatments in the Stimulation Protocol concurrent with TGFβ+PDGF-BB. Culture medium treatments were replaced daily.
# Four types of evaluations were conducted on the PCLS: (a) secretion of inflammation and fibrosis biomarkers into the culture medium, (b) histological staining and quantitation of Sirius red as a measure of tissue fibrosis, (c) gene expression of inflammation and fibrosis biomarkers by RT-PCR, and (d) RNA sequencing (RNA-Seq) of the complete transcriptome. Each of the four types of evaluation is described below: • (a) Biomarker secretion. Spent culture medium was collected daily from duplicate slices for each treatment. ELISAs were used to quantify secretion of monocyte chemoattractant protein (MCP-1), interleukin-6 (IL-6), tissue inhibitor of metalloproteinase-1 (TIMP1), hyaluronic acid, fibronectin, and collagen 1α1. For each donor the mean level of biomarker secretion in each treatment group was expressed as a percentage change relative to DMSO vehicle, the percentages averaged for all donors, and finally the mean daily percentage change calculated from all days of evaluation. Results are shown in FIG. 8A (secreted markers-% daily average change). • (b) Sirius red histological staining. […] Sirius red was quantified morphometrically in the histological sections as the percentage area with Sirius red staining in 10 sections from each treatment. In the Nonstimulation Protocol the quantity of Sirius red staining was expressed relative to the vehicle group. In the Stimulation Protocol the quantity of Sirius red staining was expressed relative to nonstimulated PCLS (0%) and TGFβ+PDGF-BB-stimulated+vehicle PCLS (100%). Results are shown in FIG. 8B (Sirius red staining for tissue fibrosis). • (c) Gene expression by RT-PCR. RNA was isolated from duplicate liver slices per treatment at the end of the experiments and evaluated by RT-PCR for 5 markers of inflammation and fibrosis: MCP-1, IL-6, TIMP1, αSMA, and collagen 1α1. β actin was used as a reference gene to calculate relative levels of each target gene RNA. […] Results are shown in FIG. 8C (gene expression by RT-PCR). • (d) Gene expression by RNA-Seq. RNA sequencing of the complete transcriptome (30 million reads per sample) was conducted on vehicle and 5 μM CRV431 treatment groups from 3 donors both from the Nonstimulation and Stimulation Protocols. Data were analyzed by bioinformatics software programs to identify genes that were differentially expressed between vehicle and CRV431 treatments.
# For the evaluation done for (d), 12 samples corresponding to 3 different donor slides which underwent 4 different treatments were studied. the comparisons carried out in this analysis are: (1) TGFb/PDGF+CRV vs TGFb/PDGF+Vehicle (V), and (2) Non-stimulated+CRV vs Non-stimulated+Vehicle. […] Table 1. Samples for evaluation (d)
# Quality Control check was performed in all samples. All samples had more than 30 million reads and a quality score average >35 for almost all the bases in the sequences. The duplication levels are expected as it is RNA sequencing, and different copies of the same RNA are expected to be present in the samples. All samples had good amount of reads and quality, therefore all samples passed the QC checked and were included in the analysis. […]
# [2] = tested on: Human LX-2 Hepatic Stellate Cells; test: Procollagen and fibronectin ELISA of spent medium, LX-2 culture; format: cell-based; conditions: 24 hours, both in the absence or presence of 0.1 ng/ml TGFβ
# Description: Human LX-2 Hepatic Stellate Cells (Millipore-Sigma, Cat. #SCC064) were cultured in 96-well plates. Treatments were applied in triplicate wells (applied 100 ul treatments per well) for 24 hours. Cells were near confluence at the start of treatments. […] Spent culture medium collected at the end of the treatments was assayed for procollagen and fibronectin by enzyme-linked immunosorbent assays (ELISA) (Procollagen ELISA antibody pair (ab216064) and fibronectin ELISA antibody pair (ab222262) from Abcam). Procollagen and fibronectin were not detected in medium not applied to cells. Procollagen and fibronectin levels in the medium are represented by means±SD (bars) from 3 replicate wells (open circles).
structure (smiles),measurement,setting,value
CC[C@@H]1NC(=O)[C@H]([C@H](O)[C@H](C)CCCCCCNC(C)=O)N(C)C(=O)[C@H](C(C)C)N(C)C(=O)[C@H](CC(C)C)N(C)C(=O)[C@H](CC(C)C)N(C)C(=O)[C@@H](C)NC(=O)[C@H](C)NC(=O)[C@H](CC(C)C)N(C)C(=O)[C@H](C(C)C)NC(=O)[C@H](CC(C)C)N(C)C(=O)[C@@H](C)N(C)C1=O [CRV431],log2FoldChange,[1]; gene ACOT9,0.543
same,log2FoldChange,[1]; gene AP003119.3,−0.67
same,log2FoldChange,[1]; gene AREG,1.034
same,log2FoldChange,[1]; gene CCDC149,0.76
same,log2FoldChange,[1]; gene CDH11,−0.915
same,log2FoldChange,[1]; gene CXCL12,0.623
same,log2FoldChange,[1]; gene CYP24A1,−1.499
same,log2FoldChange,[1]; gene DDX60,−0.739
same,fold change in RNA,[1]; gene DKK1,+3.8 fold
same,log2FoldChange,[1]; gene DNAJB9,0.721
same,fold change in RNA,[1]; gene ESM1,−2.2 fold
same,log2FoldChange,[1]; gene GDPD5,−0.606
same,log2FoldChange,[1]; gene GMPPA,0.768
same,fold change in RNA,[1]; gene IFI44L,−4.8 fold
same,log2FoldChange,[1]; gene KRT7,0.563
same,log2FoldChange,[1]; gene MPEG1,0.584
same,log2FoldChange,[1]; gene MS4A4A,0.735
same,log2FoldChange,[1]; gene NCOA3,−1.438
same,fold change in RNA,[1]; gene NCOA3,−2.7 fold
same,log2FoldChange,[1]; gene NREP,−0.638
same,log2FoldChange,[1]; gene NUCB2,0.851
same,log2FoldChange,[1]; gene NUMA1,−0.537
same,log2FoldChange,[1]; gene PGM3,0.751
same,log2FoldChange,[1]; gene POU2F2,2.856
same,log2FoldChange,[1]; gene SERPINB2,1.255
same,log2FoldChange,[1]; gene SNHG3,0.665
same,log2FoldChange,[1]; gene SOWAHC,−0.601
same,log2FoldChange,[1]; gene SRGAP2B,−0.729
same,fold change in RNA,[1]; gene mIR-194-2,−7.9 fold
same,abundance of fibronectin in the medium,[2],dose-dependently decreased
same,abundance of procollagen in the medium,[2],dose-dependently decreased
